Source: ChEMBL document CHEMBL1201862, “PubChem BioAssay data set” (2004)
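Dose response: 5 concentrations. Exposure: 48 h. Format: 96-well plates. Endpoint: linear interpolation; highest concentration if not reached. GI50 marks 50% less growth.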 The source made the active and inactive calls. No stated cut-off is given here; in the data, active = GI50 up to about 1.1 µM and inactive = higher.

Key:
Experiment in all cases: growth of human tumour cells (NCI), 48 h
A498 = test system: A498
MDA-N = test system: MDA-N
TK-10 = test system: TK-10
U-251 = test system: U-251
RPMI-8226 = test system: RPMI-8226
OVCAR-5 = test system: OVCAR-5
COLO 205 = test system: COLO 205
EKVX = test system: EKVX
SN12C = test system: SN12C
SK-MEL-2 = test system: SK-MEL-2
RXF 393 = test system: RXF 393
HT-29 = test system: HT-29
NCI-H460 = test system: NCI-H460
HCT-15 = test system: HCT-15
OVCAR-4 = test system: OVCAR-4
SK-OV-3 = test system: SK-OV-3
MCF7 = test system: MCF7
NCI-H226 = test system: NCI-H226
IGROV-1 = test system: IGROV-1
T47D = test system: T47D

`C=C(C)C(=O)O[C@@H]1C/C(C)=C\[C@H](OC(C)=O)C[C@](C)(O)/C=C2/OC(=O)C(COC(C)=O)=C21` was tested, and the GI50 (A498) was 3340 nM (inactive), the GI50 (MDA-N) was 467 nM (active) and the GI50 (TK-10) was 1500 nM (inactive). The GI50 (U-251) was 1090 nM (active), the GI50 (RPMI-8226) was 314 nM (active) and the GI50 (OVCAR-5) was 1990 nM (inactive). The GI50 (COLO 205) was 238 nM (active), the GI50 (EKVX) was 962 nM (active) and the GI50 (SN12C) was 783 nM (active). The GI50 (SK-MEL-2) was 2870 nM (inactive), the GI50 (RXF 393) was 304 nM (active) and the GI50 (HT-29) was 237 nM (active). For the same compound, the GI50 (NCI-H460) was 695 nM (active), the GI50 (HCT-15) was 212 nM and the GI50 (OVCAR-4) was 1930 nM (inactive). For the same compound, the GI50 (SK-OV-3) was 6120 nM (inactive), the GI50 (MCF7) was 1050 nM (active) and the GI50 (NCI-H226) was 1910 nM (inactive). The GI50 (IGROV-1) was 834 nM (active) and the GI50 (T47D) was 834 nM (active).
